According to patent publication US9314966B2, “Bandseal for PEG-filled hard capsule” (QUALICAPS CO., LTD., priority 2007, dated 2016):

Experiments:
Assay type in all cases: physicochemical
[1] = Solubility in PEG400 (naked-eye inspection); settings: for solubility: polyethylene glycol 400 (PEG400), organic solvent or mixture, thermodynamic from solid, read-out: Solubility in PEG400, Evaluation results
Method: 0.5 g each of the high-molecular compounds and plasticizers were placed into separate test tubes. 5 mL of PEG400 was added to each test tube. After stirring with a mixer, the resulting mixtures were inspected with the naked eye and the high-molecular compounds and plasticizers were evaluated for their solubility in PEG400.

[2] = Solubility in 10 wt. % aqueous PVA copolymer solution; settings: aqueous with cosolvent or surfactant or cyclodextrin, thermodynamic from solid; 0.5 g in 10 wt. % aqueous PVA copolymer (POVACOAT Type F) solution; read-out: Solubility in the Aqueous PVA Copolymer Solution, Evaluation result
Method: (§1) Based on the results of Experimental Example 1, the candidates as raw materials for the band seal (see Table 2) were tested to research substances soluble in an aqueous solution of a PVA copolymer (POVACOAT Type F, product of Daido Kasei Corp., viscosity: 5.5 mPa·s, as measured at 25° C. using a 5% aqueous solution of the copolymer), and an aqueous solution of PVA (JP-05, product of Japan Vam & Poval Co., Ltd., average degree of polymerization: 500).
(§2) More specifically, 0.5 g each of the film-forming high-molecular compounds and plasticizers were placed into separate test tubes. A 10 wt. % aqueous solution of the PVA copolymer or a 10 wt. % aqueous solution of the PVA was added to each test tube. […] If some solids or liquid separation was observed, the mixture was evaluated as “not dissolved (insoluble)”.

[3] = Solubility in 10 wt. % aqueous PVA solution; settings: aqueous with cosolvent or surfactant or cyclodextrin, thermodynamic from solid; 0.5 g in 10 wt. % aqueous PVA (JP-05) solution; read-out: Solubility in the Aqueous PVA Solution, Evaluation result
Method: as §1, §2

[4] = 0.5 g in 5 mL of PEG400, stirred, naked eye

Compound	solubility [1, 4] [mg/mL]	other results
OCC(O)CO [Glycerol]	> 100	–
Polysorbate 80	–	Solubility in PEG400, Evaluation results [1, 4]: x (x: dissolved)
CC(O)CO (centres unmarked) [Propylene glycol]	> 100	–

Continued, in another order:

solubility [1, 4] [mg/mL]	Compound	other results
> 100	CC(=O)OCC(COC(C)=O)OC(C)=O [Triacetin]	–
< 100	OC[C@@H](O)[C@@H](O)[C@H](O)[C@@H](O)CO [Sorbitol]	Solubility in PEG (in words) ([1]; 0.5 g in 5 mL of PEG400): insoluble; solubility [2]: > 100 mg/mL; solubility [3]: > 100 mg/mL
